{
  "source": "paper PMC8145938",
  "about": "“Triphenilphosphonium Analogs of Chloramphenicol as Dual-Acting Antimicrobial and Antiproliferating Agents” (Antibiotics, 2021)",
  "key": {"[1]": {"test_system": "Rabbit Reticulocyte Lysate", "test": "inhibition of eukaryotic in vitro translation (firefly luciferase)", "format": "biochemical", "conditions": "30 µM compound", "experimental": "The next step was to test the new CAM-Cn-TPP compounds for their ability to inhibit the synthesis of the firefly luciferase reporter in vitro in a cell-free transcription-translation system based on an E. coli S30 extract.\nThe inhibition of eukaryotic translation was measured in Rabbit Reticulocyte Lysate (Promega) according to the manufacturer’s protocol. The reactions were programmed with 100 ng of Fluc mRNA and were carried out in 5 μL aliquots at 37 °C for 30 min. The activity of the in vitro synthesized luciferase was assessed using 5 μL of the substrate from the Steady-Glo Luciferase Assay System (Promega)."}, "[2]": {"test_system": "MDA-MB-231 and BT-549 TNBC-sensitive and chemoresistant cells", "test": "cancer cell proliferation / viability assay (MTT)", "format": "cell-based", "conditions": "3 days treatment", "excerpt": "We recently provided in vivo [67] and in vitro [68] evidence that certain bactericidal antibiotics suppress tumor growth by inducing mitochondrial dysfunction. […] These cells differ from the corresponding parental cells and display a different response to the same microenvironmental stimuli, allowing them to reduce their proliferating rate and survive chemotherapeutic treatment. Here, we tested the abovementioned CAM-TPP derivatives on chemoresistant triple negative breast cancer (TNBC) cell models, as well as on corresponding CSC-like spheroid cells. We created several relevant models based on TNBC cell lines, particularly MDA-MB-231 and BT-549, to determine their resistance to cyclophosphamide. To create CSC-like cells, parental cells were resuspended in nonadherent conditions to form tumorspheres.\nThe MDA-MB-231 (RRID: CVCL_0062) and BT-549 (RRID: CVCL_1092) cell lines were purchased from ATCC and cultured in DMEM/F12 (Gibco, Life Technologies, 31330-038) supplemented with 10% FBS, 1% Pen-Strep, 1% Sodium Pyruvate, and 1% L-glutamine. Chemoresistant cell lines were established with continuous treatment for 6 months with the anticancer therapeutic agent, cyclophosphamide (Rcyclo), as previously described. These cell lines were authenticated using short tandem repeat (STR) profiling within the last three years. […] The relative numbers of tumourspheres per well were counted manually. […]\nThe survival assay was performed essentially as described earlier. […] The absorbance was measured at 570 nm in Bio Spec 1601, Shimadzu spectrometer. […] The results were expressed as the means ± SEM. The data were analyzed using the GraphPad Prism 7 PRIZM computer software under the license of the Statistical Department (Vall’ d Hebron Hospital, Barcelona, Spain)."}, "normal human fibroblasts": {"test_system": "normal human fibroblasts", "test": "cell viability of normal cells", "format": "cell-based", "conditions": "submicromolar concentrations, preliminary results", "experimental": "We also compared the effects of the obtained compounds on the suppression of normal cell growth.\nThe survival assay was performed essentially as described earlier. In short, cells were seeded into a 96-well plate, followed by treatment with increasing concentrations of the corresponding CAM-TPP derivatives for 3 days. 3-(4,5-dimethylthiazol-2-yl)-2,5-diphenyltetrazolium bromide (0.5 mg/mL MTT; Sigma-Aldrich) dissolved in media was added to each well. Following incubation for 2 h, the supernatant was carefully removed from the wells, and 100 µL of a DMSO:ethanol mix (1:1) was added to each well, followed by shaking for 10 min. The absorbance was measured at 570 nm in Bio Spec 1601, Shimadzu spectrometer. The OD570 of the DMSO solution in each well was considered to be proportional to the number of cells. The OD570 of the control (treatment without supplement) was considered to be 100%. The results were expressed as the means ± SEM. The data were analyzed using the GraphPad Prism 7 PRIZM computer software under the license of the Statistical Department (Vall’ d Hebron Hospital, Barcelona, Spain)."}},
  "data": [
    {"smiles": "O=C(CCCCCCCCCC[P+](c1ccccc1)(c1ccccc1)c1ccccc1)N[C@H](CO)[C@H](O)c1ccc([N+](=O)[O-])cc1", "note": "[CAM-C10-TPP, (N-{[(1R,2R)-1,3-dihydroxy-1-(4-nitrophenyl)propan-2-yl]amino}-11-oxoundecyl)(triphenyl)phosphonium bromide]", "values": [
      {"measurement": "effect on eukaryotic in vitro translation", "setting": "[1]", "value": "had no effect on eukaryotic in vitro translation"},
      {"measurement": "effect on proliferation of TNBC cell lines", "setting": "[2]", "value": "significantly reduced the proliferation of TNBC cell lines"},
      {"measurement": "effect on normal cell growth compared with cancer cells", "setting": "normal human fibroblasts", "value": "less affected by submicromolar concentrations of CAM-TPP derivatives than cancer cells"}
    ]},
    {"smiles": "O=C(CCCCCCCCCC[P+](c1ccccc1)(c1ccccc1)c1ccccc1)NCCCC(=O)N[C@H](CO)[C@H](O)c1ccc([N+](=O)[O-])cc1", "note": "[CAM-C14-TPP, N-[(1R,2R)-1,3-dihydroxy-1-(4-nitrophenyl)propan-2-yl]-4-(triphenyl)phosphoniumundecanamidobutamide bromide]", "values": [
      {"measurement": "effect on eukaryotic in vitro translation", "setting": "[1]", "value": "had no effect on eukaryotic in vitro translation"},
      {"measurement": "effect on proliferation of TNBC cell lines", "setting": "[2]", "value": "significantly reduced the proliferation of TNBC cell lines"}
    ]}
  ]
}
